How the values were obtained:
human D2 receptor = human D2 receptor (Homo sapiens (Human), UniProt P14416); assay: Radioligand binding ([3H]-spiperone) to cloned receptors expressed in HEK-293 EBNA cells; conditions: HEK293 EBNA cell membranes expressing human D2
Description: (§1) HEK293 EBNA cells were transiently transfected with expression plasmids encoding for the human D2 or D3 or for the human 5-HT2A receptor, respectively. The cells were harvested 48 h post-transfection, washed three times with cold PBS and stored at −80° C. prior to use. The pellet was suspended in cold 50 mM Tris-HCl buffer comprising 10 mM EDTA (pH 7.4) and was homogenized with a Polytron (Kinematica AG, Basel, Switzerland) for 20-30 sec at 12.000 rpm. After centrifugation at 48.000×g for 30 min at 4° C., the pellet was resuspended in cold 10 mM Tris-HCl buffer comprising 0.1 mM EDTA (pH 7.4), homogenized, and centrifuged as above. This pellet was further resuspended in a smaller volume of ice cold 10 mM Tris-HCl buffer comprising 0.1 mM EDTA (pH 7.4) and homogenized with a Polytron for 20-30 sec at 12.000 rpm. The protein content of this homogenate was determined with the Bio-Rad (Bradford) Protein Assay (Biorad Laboratories GmbH, München, Germany) according to the instructions of the manufacturer using gamma globulin as the standard. This homogenate was stored at −80° C. in aliquots and thawed immediately prior to use.
(§2) Aliquots of membrane preparations were thawed at RT, resupended in assay buffer (D2, D3: 50 mM Tris-HCl, 120 mM NaCl, 5 mM MgCl2, 1 mM EDTA, 5 mM KCl, 1.5 mM CaCl2, pH=7.4; 5-HT2A: 50 mM Tris-HCl, 10 mM MgCl2, 1 mM EGTA, pH=7.4), homogenized with a Polytron for 20-30 sec at 12.000 rpm and adjusted to a final concentration of approximately 7.5 μg protein/well (D2, D3) and 15 μg protein/well (5-HT2A), respectively.
(§3) The binding affinity (Ki) of the compounds was determined using radioligand binding. Membranes were incubated in a total volume of 200 μl with a fixed concentration of radioligand (final concentration approximately 0.7 nM [^3H]-spiperone for D2, 0.5 nM [^3H]-spiperone for D3, and 1.1 nM [^3H]-ketanserin for 5-HT2A) and ten concentrations of test compound in ranging between 10 μM-0.1 nM for 1 h at RT. At the end of the incubation, the reaction mixtures were filtered on to unifilter 96-well white microplates with bonded GF/C filters (Packard BioScience, Zürich, Switzerland; preincubated for 1 h in 0.1% polyethylenimine (PEI) in assay buffer) with a Filtermate 196 harvester (Packard BioScience) and washed 3 times with cold assay buffer. The nonspecific binding was determined with equally composed reaction mixtures in the presence of 10 μM unlabelled spiperone. Per well 45 μl of Microscint 40 (Perkin Elmer, Schwerzenbach, Switzerland) was added, plates for sealed, shaken for 20 min and counted for 3 min on a Topcount Microplate Scintillation Counter (Can berra Packard SA, Zürich, Switzerland) with quenching correction.
(§4) The CPM value for each duplicate of a concentration of competing compound was averaged (y1), then the % specific binding was calculated according to the equation (((y1−non-specific)/(total binding−non-specific))×100). Graphs were plotted with the % specific binding using XLfit, a curve fitting program that iteratively plots the data using Levenberg-Marquardt algorithm. The single site competition analysis equation used was y=A+((B−A)/(1+((x/C)D))), where y is the % specific binding, A is the minimum y, B is the maximum y, C is the IC50, x is the log 10 of the concentration of the competing compound and D is the slope of the curve (the Hill Coefficient). […] The affinity constant (Ki) was calculated using the Cheng-Prusoff equation Ki=(IC50/1+([L]/Kd), where [L] is the concentration of radioligand and Kd is the dissociation constant of the radioligand at the receptor as determined by the saturation isotherm.

human D3 receptor = human D3 receptor (Homo sapiens (Human), UniProt P35462); assay: as above; conditions: HEK293 EBNA cell membranes expressing human D3
Description: as §1, §2, §3, §4

human 5-HT2A receptor = human 5-HT2A receptor (Homo sapiens (Human), UniProt P28223); assay: Radioligand binding ([3H]-ketanserin) to cloned receptors expressed in HEK-293 EBNA cells; conditions: HEK293 EBNA cell membranes expressing human 5-HT2A
Description: as §1, §2, §3, §4

Chain of human 5-HT2A receptor (P28223 whole entry): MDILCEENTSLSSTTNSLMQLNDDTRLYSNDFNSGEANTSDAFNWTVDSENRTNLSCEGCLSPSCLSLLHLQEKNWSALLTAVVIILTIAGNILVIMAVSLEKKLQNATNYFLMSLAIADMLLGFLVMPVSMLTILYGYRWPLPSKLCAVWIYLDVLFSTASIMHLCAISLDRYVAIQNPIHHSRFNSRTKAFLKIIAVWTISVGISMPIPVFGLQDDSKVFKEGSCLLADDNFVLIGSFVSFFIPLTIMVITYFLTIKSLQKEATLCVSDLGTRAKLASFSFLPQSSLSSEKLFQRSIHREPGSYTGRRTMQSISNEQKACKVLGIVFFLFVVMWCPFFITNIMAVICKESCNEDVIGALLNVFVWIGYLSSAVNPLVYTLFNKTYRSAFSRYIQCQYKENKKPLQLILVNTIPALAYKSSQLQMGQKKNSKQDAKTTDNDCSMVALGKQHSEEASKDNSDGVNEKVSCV
Chain of human D2 receptor (P14416 whole entry): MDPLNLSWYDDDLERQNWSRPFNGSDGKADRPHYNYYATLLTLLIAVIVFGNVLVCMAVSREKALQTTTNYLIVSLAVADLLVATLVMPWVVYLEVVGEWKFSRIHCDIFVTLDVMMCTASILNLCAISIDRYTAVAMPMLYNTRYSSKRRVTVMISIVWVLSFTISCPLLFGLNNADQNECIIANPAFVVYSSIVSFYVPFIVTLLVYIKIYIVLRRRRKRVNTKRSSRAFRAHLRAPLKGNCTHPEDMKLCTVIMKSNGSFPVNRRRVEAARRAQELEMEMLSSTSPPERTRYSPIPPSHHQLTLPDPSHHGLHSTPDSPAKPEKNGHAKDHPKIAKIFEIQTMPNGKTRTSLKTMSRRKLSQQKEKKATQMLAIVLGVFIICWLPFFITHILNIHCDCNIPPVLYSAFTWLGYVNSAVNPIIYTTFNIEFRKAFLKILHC
Chain of human D3 receptor (P35462 whole entry): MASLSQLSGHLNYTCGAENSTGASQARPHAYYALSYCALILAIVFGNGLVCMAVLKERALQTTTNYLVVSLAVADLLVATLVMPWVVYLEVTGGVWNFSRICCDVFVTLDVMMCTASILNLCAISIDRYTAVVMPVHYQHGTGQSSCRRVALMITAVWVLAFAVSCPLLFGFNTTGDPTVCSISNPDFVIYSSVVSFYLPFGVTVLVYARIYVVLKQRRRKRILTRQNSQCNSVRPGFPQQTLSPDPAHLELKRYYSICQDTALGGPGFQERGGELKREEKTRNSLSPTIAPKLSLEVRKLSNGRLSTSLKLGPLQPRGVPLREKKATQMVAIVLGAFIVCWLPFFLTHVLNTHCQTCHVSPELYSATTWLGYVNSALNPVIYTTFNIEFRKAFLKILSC

Structure (SMILES) | Ki (human D2 receptor) | Ki (human D3 receptor) | melting point | Ki (human 5-HT2A receptor)
O=C(CC1COCCO1)N[C@H]1CC[C@H](CCN2CCC(c3cccc4occc34)CC2)CC1 (mixture of isomers) [Example 12, trans-N-{4-[2-(4-Benzofuran-4-yl-piperidin-1-yl)-ethyl]-cyclohexyl}-rac-2-[1,4]dioxan-2-yl-acetamide] | 219 nM | 5.4 nM | 165 °C | 
O=C(CC1COCCO1)N[C@H]1CC[C@H](CCN2CCC(c3cccc4c3CCO4)CC2)CC1 (mixture of isomers) [Example 16, trans-N-(4-{2-[4-(2,3-Dihydro-benzofuran-4-yl)-piperidin-1-yl]-ethyl}-cyclohexyl)-rac-2-[1,4]dioxan-2-yl-acetamide] |  |  | 192 °C | 22.3 nM
O=C(CC1CCCO1)N[C@H]1CC[C@H](CCN2CCC(c3cccc4c3CCO4)CC2)CC1 (mixture of isomers) [Example 25, trans-N-(4-{2-[4-(2,3-Dihydro-benzofuran-4-yl)-piperidin-1-yl]-ethyl}-cyclohexyl)-rac-2-(tetrahydro-furan-2-yl)-acetamide] |  |  | 192 °C | 
O=C(N[C@H]1CC[C@H](CCN2CCC(c3cccc4c3CCO4)CC2)CC1)C(O)C(F)(F)F (mixture of isomers) [Example 37, trans-(RS)—N-(4-{2-[4-(2,3-Dihydro-benzofuran-4-yl)-piperidin-1-yl]-ethyl}-cyclohexyl)-3,3,3-trifluoro-2-hydroxy-propionamide] | 241 nM | 9.2 nM | 179 °C | 
O=C(N[C@H]1CC[C@H](CCN2CCC(c3cccc4c3CCO4)CC2)CC1)C1CCOC1 (mixture of isomers) [Example 52, (RS)-Tetrahydro-furan-3-carboxylic acid trans-(4-{2-[4-(2,3-dihydro-benzofuran-4-yl)-piperidin-1-yl]-ethyl}-cyclohexyl)-amide] | 135 nM | 5.5 nM | 211 °C | 24.6 nM
O=C(N[C@H]1CC[C@H](CCN2CCC(c3cccc4c3CCO4)CC2)CC1)C1CCCO1 (mixture of isomers) [Example 53, (RS)-Tetrahydro-furan-2-carboxylic acid trans-(4-{2-[4-(2,3-dihydro-benzofuran-4-yl)-piperidin-1-yl]-ethyl}-cyclohexyl)-amide] |  | 41.5 nM | 160 °C | 13.1 nM
O=C(N[C@H]1CC[C@H](CCN2CCC(c3cccc4c3CCO4)CC2)CC1)C1CCCOC1 (mixture of isomers) [Example 54, (RS)-Tetrahydro-pyran-3-carboxylic acid trans-(4-{2-[4-(2,3-dihydro-benzofuran-4-yl)-piperidin-1-yl]-ethyl}-cyclohexyl)-amide] | 633 nM |  | 222 °C | 21.3 nM
CCC(C)C(=O)N[C@H]1CC[C@H](CCN2CCC(c3cccc4c3CCO4)CC2)CC1 (mixture of isomers) [Example 62, trans-N-(4-{2-[4-(2,3-Dihydro-benzofuran-4-yl)-piperidin-1-yl]-ethyl}-cyclohexyl)-(RS)-2-methyl-butyramide] | 1200 nM |  | 210 °C | 64.4 nM
CC(=O)N[C@H]1CC[C@H](CCN2CCC(c3cccc4occc34)CC2)CC1 [Example 1, trans-N-{4-[2-(4-Benzofuran-4-yl-piperidin-1-yl)-ethyl]-cyclohexyl}-acetamide] | 187 nM | 2.9 nM | 167 °C | 6.8 nM
COCCC(=O)N[C@H]1CC[C@H](CCN2CCC(c3cccc4occc34)CC2)CC1 [Example 2, trans-N-{4-[2-(4-Benzofuran-4-yl-piperidin-1-yl)-ethyl]-cyclohexyl}-3-methoxy-propionamide] | 288 nM | 3.1 nM | 154 °C | 7.1 nM
O=C(N[C@H]1CC[C@H](CCN2CCC(c3cccc4occc34)CC2)CC1)C1CCOCC1 [Example 3, Tetrahydro-pyran-4-carboxylic acid trans-{4-[2-(4-benzofuran-4-yl-piperidin-1-yl)-ethyl]-cyclohexyl}-amide] | 305 nM | 11.9 nM | 217 °C | 2.2 nM
O=C(CC1CCOCC1)N[C@H]1CC[C@H](CCN2CCC(c3cccc4occc34)CC2)CC1 [Example 4, trans-N-{4-[2-(4-Benzofuran-4-yl-piperidin-1-yl)-ethyl]-cyclohexyl}-2-(tetrahydro-pyran-4-yl)-acetamide] | 219 nM | 5.7 nM | 181 °C | 9 nM
CC(=O)N[C@H]1CC[C@H](CCN2CCC(c3cccc4c3CCO4)CC2)CC1 [Example 5, trans-N-(4-{2-[4-(2,3-Dihydro-benzofuran-4-yl)-piperidin-1-yl]-ethyl}-cyclohexyl)-acetamide] | 298 nM | 6 nM | 183 °C | 37.2 nM
COCCC(=O)N[C@H]1CC[C@H](CCN2CCC(c3cccc4c3CCO4)CC2)CC1 [Example 6, trans-N-(4-{2-[4-(2,3-Dihydro-benzofuran-4-yl)-piperidin-1-yl]-ethyl}-cyclohexyl)-3-methoxy-propionamide] | 509 nM | 6.6 nM | 182 °C | 38.7 nM
O=C(N[C@H]1CC[C@H](CCN2CCC(c3cccc4c3CCO4)CC2)CC1)C1CCOCC1 [Example 7, Tetrahydro-pyran-4-carboxylic acid trans-(4-{2-[4-(2,3-dihydro-benzofuran-4-yl)-piperidin-1-yl]-ethyl}-cyclohexyl)-amide] | 716 nM | 22.8 nM | 227 °C | 12.8 nM
O=C(C[C@@H]1COCCO1)N[C@H]1CC[C@H](CCN2CCC(c3cccc4c3CCO4)CC2)CC1 [Example 21, trans-N-(4-{2-[4-(2,3-Dihydro-benzofuran-4-yl)-piperidin-1-yl]-ethyl}-cyclohexyl)-(R)-2-[1,4]dioxan-2-yl-acetamide] |  |  | 190 °C | 27.9 nM
O=C(C[C@H]1COCCO1)N[C@H]1CC[C@H](CCN2CCC(c3cccc4c3CCO4)CC2)CC1 [Example 22, trans-N-(4-{2-[4-(2,3-Dihydro-benzofuran-4-yl)-piperidin-1-yl]-ethyl}-cyclohexyl)-(8)-2-[1,4]dioxan-2-yl-acetamide] |  |  | 190 °C | 19.4 nM
O=C(C[C@H]1CCCO1)N[C@H]1CC[C@H](CCN2CCC(c3cccc4c3CCO4)CC2)CC1 [Example 31, trans-N-(4-{2-[4-(2,3-Dihydro-benzofuran-4-yl)-piperidin-1-yl]-ethyl}-cyclohexyl)-(R)-2-(tetrahydro-furan-2-yl)-acetamide] |  |  | 192 °C | 
O=C(C[C@@H]1CCCO1)N[C@H]1CC[C@H](CCN2CCC(c3cccc4c3CCO4)CC2)CC1 [Example 32, trans-N-(4-{2-[4-(2,3-Dihydro-benzofuran-4-yl)-piperidin-1-yl]-ethyl}-cyclohexyl)-(S)-2-(tetrahydro-furan-2-yl)-acetamide] |  |  | 192 °C | 
O=C(N[C@H]1CC[C@H](CCN2CCC(c3cccc4c3CCO4)CC2)CC1)C1(O)CCC1 [Example 39, 1-Hydroxy-cyclobutanecarboxylic acid trans-(4-{2-[4-(2,3-dihydro-benzofuran-4-yl)-piperidin-1-yl]-ethyl}-cyclohexyl)-amide] | 306 nM | 27.3 nM |  | 12.3 nM

Source: US8877778B2, “Benzofurane compounds” (Hoffmann-La Roche Inc., priority 2010, dated 2014)
